The values below come from paper PMC10721329, “Quisinostat is a brain-penetrant radiosensitizer in glioblastoma” (JCI Insight, 2023).

One data set concerns GB126 cells. The data set can be described thus: Ki67 / cleaved caspase-3 immunofluorescence. The class given is cell-based, human. The conditions noted are these: QST at IC50, 72 hours, replicates. As for the experimental part: (§1) Cells were grown as adherent cultures on laminin -coated glass coverslips (Thermo Fisher Scientific) in GSC media. Twenty-four hours after plating, the cells were treated with QST or DMSO diluted in GSC media. Seventy-two hours after treatment, cells were fixed with 4% paraformaldehyde for 13 minutes at room temperature. Cells were washed with phosphate-buffered saline (PBS) and subsequently permeabilized and blocked with 5% normal goat serum (Sigma Aldrich) and 0.2% Triton X -100 in PBS (blocking solution) for 30 minutes at room temperature. The cells were incubated with primary antibodies overnight a t 4 °C in blocking solution. Primary antibodies used in this study included rabbit anti -Ki67 (1:1000; Abcam, 15580), rabbit anti-Cleaved Caspase 3 (1:400; Cell Signaling Technologies, 9661), rabbit anti - gamma H2AX (phospho Ser139; 1:1000, Abcam, ab11174), and mouse anti-human Nestin (1:500; Novus Biologicals, 10C2). The following day, the cells were washed with PBS 3 times, incubated with fluorophore-conjugated secondary antibodies at 1: 1000 dilutions (Alexa Fluor […]
(§2) for 1 hour at room temperature, and washed in PBS 3 more times. Cells were mounted onto […]
(§3) SuperFrost Plus microscope slides using Fluoroshield Mounting Medium containing DAPI (Abcam). Images were acquired using a confocal microscope (Leica Microsystems; TCS SP5) operated with Leica Application Suite software. The fraction of Ki67- and Cleaved Caspase 3– positive cells were counted from 5 independent images from each condition. The mean and standard deviation were calculated from 3 biological replicates for all control and QST-treated […]
(§4) Analysis of immunostaining of cultured GSCs was performed on confocal stacks (with a step size of 0.5–1.5 μm) acquired with either a 20× water-immersion objective or a 63× oil-immersion objective on a laser-scanning confocal microscope (Leica Microsystems; TCS SP5) operated with Leica Application Suite software. All images were processed using ImageJ software (National Institutes of Health). […]
(§5) mL of ice cold 70% ethanol, added dropwise while vortexing. Cells were fixed on ice for 30 minutes and washed twice with 1× PBS. Cells were then resuspended in 500 μL of propidium iodide/RNAse staining buffer (BD Biosciences, 550825) for 15 minutes at room temperature before analysis. Data from all the samples were obtained using a Fortessa flow cytometer (BD […]

For data set [1], the system named is BT145 cells. As to the kind of experiment: Ki67 / cleaved caspase-3 immunofluorescence. Type of data set: cell-based, human. The conditions noted are these: QST at IC50, 72 hours, replicates. As for the experimental part: as §1, §2, §3, §4, §5
Data set [2] can be described thus: Stability in neurobasal cell culture medium at 37°C. The class given is in vitro ADME. The conditions noted are these: for %stability: neurobasal cell media, 37C. As for the experimental part:
Hydroxamic acid–based compounds have been reported to display poor stability and high plasma clearance due to the presence of arylesterases and carboxylesterases in rodent blood ([34]). Therefore, we measured the stability of QST in mouse plasma and brain to determine whether drug degradation occurred during our sample preparations and equilibrium dialyses for the determination of unbound drug level (performed at 37°C). […] QST degradation was also observed in mouse brain homogenate (Figure 6B). However, perfusion of mice before brain collection prevented rapid drug degradation in the brain matrix. […] Degradation of QST can also be constrained if plasma and brain samples are processed at 4°C (Supplemental Figure 4A). All subsequent sample preparations were therefore performed on ice-cold baths to avoid degradation of QST in our PK analyses. […] The observed stability is probably due to the absence of esterases in human matrices, which are responsible for degradation of QST ([34]). Because we employed QST in several in vitro studies (Figures 1–4), the stability of the molecule was also tested in the cell media used to culture GSCs (neurobasal medium; see Methods).
Stability Study in Mouse Plasma, Mouse Brain, Human Plasma, Human Brain, and Neural […]
The stability of QST was determined in BALB/c mouse plasma, male nude athymic perfused and nonperfused mouse brain homogenate (1:9 w/v of PBS; pH 7.4), human brain (obtained from VRL Eurofins) homogenate (1:4 w/v of PBS; pH 7.4), pooled human plasma (Innovative Research), and neurobasal media. QST stock solutions (1 mM) were prepared in acetonitrile, subsequently diluted in a 40% methanol mixture, and added t o the matrices to make final concentrations of 100 nM or 10 nM. Then 50 or 30 µL of either plasma or brain homogenate containing QST were aliquoted into 1.5-mL microcentrifuge tubes (Eppendorf) and were incubated at either 4 °C or 37 °C for 0, 2, 4, 6, 12, or 24 hours (n = 3 at each time point). […]
Plasma and brain […]
homogenate samples were stored at −80 °C until LC-MS/MS analysis. […]

Data set [3] relates to BT145 cells. As to the kind of experiment: γ-H2AX foci immunofluorescence. Type of data set: cell-based, human. Particulars: BT 145, 75 nM QST, single nuclei. The protocol: To test the DNA-damaging effects of QST in GBM cells, we treated 2 independent GSC lines with QST for 72 hours at the IC50 and analyzed changes in the levels of phosphorylated histone H2AX (γ-H2AX), a marker for DNA double-strand breaks (DSBs) ([27]). […]
anti-GAPDH (1:1000, Cell Signaling Technologies, 97166), rabbit anti-cleaved poly (ADP-ribose) polymerase Asp 214 (1:1000, Cell Signaling, 9541), rabbit anti-BDNF (1:1000, Abcam, ab108319) and mouse anti- β-actin (1:1000, Bio-Rad, MCA5775GA). Membranes were probed with fluorophore-conjugated anti-mouse or anti-rabbit secondary antibodies (1:10,000; ThermoFisher Scientific). Western blots were developed using the LI-COR Odyssey CLx imaging system (LI-COR) and quantitated using the Image Studio Lite software. All Western blots are representative images from a minimum of 3 biological replicates.
Cells were grown as adherent cultures on laminin -coated glass coverslips (Thermo Fisher Scientific) in GSC media. Twenty-four hours after plating, the cells were treated with QST or DMSO diluted in GSC media. Seventy-two hours after treatment, cells were fixed with 4% paraformaldehyde for 13 minutes at room temperature. Cells were washed with phosphate-buffered saline (PBS) and subsequently permeabilized and blocked with 5% normal goat serum (Sigma Aldrich) and 0.2% Triton X -100 in PBS (blocking solution) for 30 minutes at room temperature. […]
SuperFrost Plus microscope slides using Fluoroshield Mounting Medium containing DAPI (Abcam). […] The fraction of Ki67- and Cleaved Caspase 3– positive cells were counted from 5 independent images from each condition. The mean and standard deviation were calculated from 3 biological replicates for all control and QST-treated […]
For cell cycle analysis following short -term DMSO or QST treatment in GSC cultures, approximately 1 million cells were harvested, washed in cold 1× PBS once, and fixed with 3–4 mL of ice cold 70% ethanol, added dropwise while vortexing. […] Data from all the samples were obtained using a Fortessa flow cytometer (BD Biosciences) and analyzed using the FlowJo software (TreeStar). […]

Structures are written as SMILES. Values joined by “and” are separate entries in the source; they are usually repeats but may differ in a detail not shown here. Identical values can stand only once.

In the case of `Cn1cc(CNCC2CCN(c3ncc(C(=O)NO)cn3)CC2)c2ccccc21` [QST, quisinostat], the “% CC-3 + / DAPI” value is 18.5009% and 22.4947% and 8.724% with GB126 cells; 11.8845% and 6.461% and 13.5339% in the data set with BT145 cells [1]. Besides, the “% Ki67+ / DAPI” value in the data set with GB126 cells is 8.013% and 11.9177% and 10.7184%; in the data set on BT145 cells [1], 26.1653% and 29.1973% and 26.725%. Further, the “%stability” value in data set [2] (10 nM, time 0 hrs (15 minutes used as zero hour time point)) was 101.6% and 100.2% and 98.2%; in data set [2] (10 nM, time 0 hrs (15 minutes used as zero hour time point), mean), 100.0%; in data set [2] (10 nM, time 2 hrs) it was 102.7% and 80.7% and 97.1%; in data set [2] (10 nM, time 2 hrs, mean), 93.5%; in data set [2] (10 nM, time 5 hrs), 88.0% and 90.7% and 90.1%; in data set [2] (10 nM, time 5 hrs, mean), 89.6%. The “%stability” value in data set [2] (10 nM, time 24 hrs) is 69.7% and 66.1%; in data set [2] (10 nM, time 24 hrs, mean), 68.5%; in data set [2] (100 nM, time 0 hrs (15 minutes used as zero hour time point)) it was 85.1% and 110.5% and 104.4%; in data set [2] (100 nM, time 0 hrs (15 minutes used as zero hour time point), mean), 100.0%; in data set [2] (100 nM, time 2 hrs), 109.4% and 82.9% and 110.7%; in data set [2] (100 nM, time 2 hrs, mean), 101.0%. Besides, the “%stability” value in data set [2] (100 nM, time 5 hrs) was 95.9% and 77.8% and 80.7%; in data set [2] (100 nM, time 5 hrs, mean), 84.8%; in data set [2] (100 nM, time 24 hrs), 73.1% and 67.2% and 68.6%; in data set [2] (100 nM, time 24 hrs, mean) it was 69.6%. The “QST intact in cell media” value in data set [2] (neurobasal medium, 24-hour incubation, 37°C) is “approximately 70%”. In addition, the “Number of foci/ Nucleus (ƴH2AX)” value with BT145 cells [3] was determined as 12. Moreover, the “ƴH2AX Number of foci/ Nucleus” value in the data set on BT145 cells [3] (replicates n=1 to n=3) came to 12.
